# Laboratory results reported in ChEMBL document CHEMBL1152934, “Quinazolindione derivatives as potent 5-HT3A receptor antagonists” (Bioorg Med Chem, 2009).
# Target: Voltage-dependent T-type calcium channel subunit alpha-1G (Homo sapiens, UniProt O43497)
# Test: Antagonist activity against T-type calcium channel alpha1G; call rule not given here
# Type: functional
# Voltage-dependent T-type calcium channel subunit alpha-1G, sequence (O43497 whole entry): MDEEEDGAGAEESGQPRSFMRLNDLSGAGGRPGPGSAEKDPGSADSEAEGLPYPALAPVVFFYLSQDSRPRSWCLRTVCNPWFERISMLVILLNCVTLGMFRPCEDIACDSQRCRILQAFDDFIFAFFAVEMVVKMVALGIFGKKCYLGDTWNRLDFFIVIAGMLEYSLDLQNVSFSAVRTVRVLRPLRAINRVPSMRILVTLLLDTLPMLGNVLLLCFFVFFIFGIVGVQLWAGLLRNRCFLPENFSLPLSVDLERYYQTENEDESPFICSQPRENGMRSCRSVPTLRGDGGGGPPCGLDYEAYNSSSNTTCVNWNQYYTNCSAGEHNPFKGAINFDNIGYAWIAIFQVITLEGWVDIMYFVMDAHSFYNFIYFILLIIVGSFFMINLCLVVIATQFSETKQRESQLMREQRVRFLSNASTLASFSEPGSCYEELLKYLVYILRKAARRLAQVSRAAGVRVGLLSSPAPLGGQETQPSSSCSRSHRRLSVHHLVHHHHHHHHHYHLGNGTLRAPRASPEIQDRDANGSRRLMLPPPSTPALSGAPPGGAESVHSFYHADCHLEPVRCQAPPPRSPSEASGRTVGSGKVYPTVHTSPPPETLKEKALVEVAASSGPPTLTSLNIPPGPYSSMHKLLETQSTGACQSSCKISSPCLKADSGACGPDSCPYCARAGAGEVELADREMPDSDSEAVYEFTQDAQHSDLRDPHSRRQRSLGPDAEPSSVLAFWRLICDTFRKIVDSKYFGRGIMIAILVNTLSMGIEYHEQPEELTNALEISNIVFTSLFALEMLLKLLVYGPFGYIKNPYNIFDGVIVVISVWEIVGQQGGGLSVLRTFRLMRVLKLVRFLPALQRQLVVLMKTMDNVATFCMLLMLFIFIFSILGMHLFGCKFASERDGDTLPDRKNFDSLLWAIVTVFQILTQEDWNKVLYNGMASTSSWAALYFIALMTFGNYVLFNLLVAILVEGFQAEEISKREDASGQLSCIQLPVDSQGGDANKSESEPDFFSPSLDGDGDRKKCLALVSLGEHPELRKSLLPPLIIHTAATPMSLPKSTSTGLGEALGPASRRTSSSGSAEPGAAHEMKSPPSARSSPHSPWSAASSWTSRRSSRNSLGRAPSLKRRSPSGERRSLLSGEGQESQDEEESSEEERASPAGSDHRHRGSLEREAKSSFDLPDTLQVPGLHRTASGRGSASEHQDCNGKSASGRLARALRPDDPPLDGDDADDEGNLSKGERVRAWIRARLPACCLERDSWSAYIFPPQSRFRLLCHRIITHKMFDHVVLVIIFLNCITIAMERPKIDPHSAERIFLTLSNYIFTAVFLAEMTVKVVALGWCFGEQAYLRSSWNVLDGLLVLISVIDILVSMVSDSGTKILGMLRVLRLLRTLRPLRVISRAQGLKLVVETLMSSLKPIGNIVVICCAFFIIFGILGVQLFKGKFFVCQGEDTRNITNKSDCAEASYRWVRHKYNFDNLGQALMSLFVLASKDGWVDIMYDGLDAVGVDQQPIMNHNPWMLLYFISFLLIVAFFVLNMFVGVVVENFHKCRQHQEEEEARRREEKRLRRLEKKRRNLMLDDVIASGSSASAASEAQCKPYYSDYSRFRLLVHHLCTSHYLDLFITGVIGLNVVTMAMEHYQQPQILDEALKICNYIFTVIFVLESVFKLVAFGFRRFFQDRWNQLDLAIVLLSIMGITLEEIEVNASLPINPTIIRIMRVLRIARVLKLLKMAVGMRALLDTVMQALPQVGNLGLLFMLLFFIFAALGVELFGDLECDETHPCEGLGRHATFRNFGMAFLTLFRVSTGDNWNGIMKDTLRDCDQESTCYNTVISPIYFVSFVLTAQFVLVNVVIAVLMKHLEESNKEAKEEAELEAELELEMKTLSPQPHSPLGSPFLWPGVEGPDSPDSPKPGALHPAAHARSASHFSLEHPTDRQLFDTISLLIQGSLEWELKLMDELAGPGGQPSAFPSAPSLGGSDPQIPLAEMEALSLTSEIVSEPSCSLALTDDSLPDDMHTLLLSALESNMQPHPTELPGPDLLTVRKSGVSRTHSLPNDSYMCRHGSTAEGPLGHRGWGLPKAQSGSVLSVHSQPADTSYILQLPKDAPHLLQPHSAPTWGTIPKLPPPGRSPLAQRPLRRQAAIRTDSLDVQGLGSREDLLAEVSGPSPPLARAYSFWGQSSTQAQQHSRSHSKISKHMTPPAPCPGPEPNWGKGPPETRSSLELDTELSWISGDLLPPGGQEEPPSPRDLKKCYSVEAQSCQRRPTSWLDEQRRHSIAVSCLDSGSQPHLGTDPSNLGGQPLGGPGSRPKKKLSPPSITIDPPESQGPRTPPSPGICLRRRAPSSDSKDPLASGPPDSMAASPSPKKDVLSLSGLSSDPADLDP
row,SMILES,IC50
1,CC1CCCCN1CCCNC(=O)c1ccc2c(=O)n(C3CCCCC3)c(=O)[nH]c2c1 (stereo not drawn),Not Active
2,O=C(NCCN1CCOCC1)c1ccc2c(=O)n(Cc3ccc(F)cc3)c(=O)[nH]c2c1,Not Active
3,CC1CCCCN1CCNC(=O)c1ccc2c(=O)n(Cc3ccc(Cl)cc3)c(=O)[nH]c2c1 (stereo not drawn),Not Active
4,O=C(NCCCN1CCOCC1)c1ccc2c(=O)n(Cc3ccc(Cl)cc3)c(=O)[nH]c2c1,Not Active
5,COc1ccccc1Cn1c(=O)[nH]c2cc(C(=O)NCCN3CCCCC3)ccc2c1=O,Not Active
6,CCC1CCCCN1CCCNC(=O)c1ccc2c(=O)n(Cc3ccc(Cl)cc3)c(=O)[nH]c2c1 (stereo not drawn),Not Active
7,O=C(NCCN1CCCCC1)c1ccc2c(=O)n(C3CCCCC3)c(=O)[nH]c2c1,Not Active
8,COc1ccc(-n2c(=O)[nH]c3cc(C(=O)NCCN4CCCCC4)ccc3c2=O)cc1,Not Active
9,CC1CCCCN1CCCNC(=O)c1ccc2c(=O)n(Cc3ccc(Cl)cc3)c(=O)[nH]c2c1 (stereo not drawn),Not Active
10,O=C(NCCN1CCOCC1)c1ccc2c(=O)n(-c3ccc(F)cc3)c(=O)[nH]c2c1,Not Active
11,COc1cccc(Cn2c(=O)[nH]c3cc(C(=O)NCCN4CCCCC4)ccc3c2=O)c1,Not Active
12,CCCn1c(=O)[nH]c2cc(C(=O)NCCN3CCCCC3)ccc2c1=O,Not Active
13,O=C(NCCN1CCOCC1)c1ccc2c(=O)n(Cc3ccc(Cl)cc3)c(=O)[nH]c2c1,Not Active
14,O=C(NCCN1CCCCC1)c1ccc2c(=O)n(Cc3ccccc3Cl)c(=O)[nH]c2c1,Not Active
15,O=C(NCCN1CCCCC1)c1ccc2c(=O)n(-c3ccc(F)cc3)c(=O)[nH]c2c1,Not Active
16,COc1ccc(Cn2c(=O)[nH]c3cc(C(=O)NCCN4CCCCC4)ccc3c2=O)cc1,Not Active
17,O=C(NCCN1CCCCC1)c1ccc2c(=O)n(Cc3ccccc3F)c(=O)[nH]c2c1,Not Active
18,Cn1c(=O)[nH]c2cc(C(=O)NCCN3CCCCC3)ccc2c1=O,Not Active
